The values below are quoted from earlier work in US20030149010A1, “Combination of an aldosterone receptor antagonist and an HMG CoA reductase inhibitor” (priority 2001, published 2003).

In series [1] the test system is patients afflicted with congestive heart failure. Particulars: coadministered with an ACE inhibitor.
Series [2] deals with patients with severe heart failure. Particulars: spironolactone added to ACE inhibitor therapy; 1663 patients with severe heart failure.

With `CC(=O)S[C@@H]1CC2=CC(=O)CC[C@]2(C)[C@H]2CC[C@@]3(C)[C@@H](CC[C@@]34CCC(=O)O4)[C@H]12` [spironolactone, 17-hydroxy-7α-mercapto-3-oxo-17α-pregn-4-ene-21-carboxylic acid γ-lactone acetate], the “effectiveness in congestive heart failure” value in series [1] was “highly effective in 13 of 16 patients”. Also, in series [2], the reduction in hospitalizations is given as 35% and the reduction in mortality is 30%.
